Here are results for ten molecules from patent US10472356B2, “Bicyclic ketone sulfonamide compounds” (AMGEN INC., priority 2015, dated 2019).

Experiment [1] addresses T1, human Nav1.7 (Homo sapiens, UniProt Q15858).
T1 construct: expressed in transfected cells; host or cells: HEK293
The experiment in a line: Nav 1.7 In Vitro PatchXpress (PX) Assay. Format: cell-based. The settings on record: HEK 293 cells stably transfected with human Nav1.7; PatchXpress whole cell voltage clamp; partially inactivated state (holding potential yielding 20 to 50% inactivation); read-out: hNav1.7 PX IC50. The gist of the method:
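Whole-cell voltage clamp on HEK 293 cells stably expressing human Nav1.7 (automated patch), holding potential giving 20–50% inactivation; 20 ms pulses to −10 mV at 0.1 Hz. Single compound concentration applied 3 min, peak current inhibition measured; IC50 fitted from 3–5 cells per concentration.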

The target of experiment [2] is T1, human Nav1.7. The experiment in a line: Nav 1.7 IWB In Vitro Assay (IonWorks Barracuda). Format: cell-based. The settings on record: HEK293 cells stably transfected with human Nav 1.7; IonWorks Barracuda population patch-clamp; cells clamped to −20 mV for 4 minutes with compound; 26th pulse; read-out: hNav1.7 IWB IC50. The gist of the method: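 Population patch clamp of HEK293 cells stably expressing human Nav 1.7: 26 pulses to −20 mV (150 ms, 5 Hz) from −110 mV, then 4 min at −20 mV with compound, 3 s recovery at −110 mV and the train repeated. % inhibition of 26th-pulse peak current vs no compound; IC50 from concentration-response curves.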

T1 sequence (Q15858 whole entry): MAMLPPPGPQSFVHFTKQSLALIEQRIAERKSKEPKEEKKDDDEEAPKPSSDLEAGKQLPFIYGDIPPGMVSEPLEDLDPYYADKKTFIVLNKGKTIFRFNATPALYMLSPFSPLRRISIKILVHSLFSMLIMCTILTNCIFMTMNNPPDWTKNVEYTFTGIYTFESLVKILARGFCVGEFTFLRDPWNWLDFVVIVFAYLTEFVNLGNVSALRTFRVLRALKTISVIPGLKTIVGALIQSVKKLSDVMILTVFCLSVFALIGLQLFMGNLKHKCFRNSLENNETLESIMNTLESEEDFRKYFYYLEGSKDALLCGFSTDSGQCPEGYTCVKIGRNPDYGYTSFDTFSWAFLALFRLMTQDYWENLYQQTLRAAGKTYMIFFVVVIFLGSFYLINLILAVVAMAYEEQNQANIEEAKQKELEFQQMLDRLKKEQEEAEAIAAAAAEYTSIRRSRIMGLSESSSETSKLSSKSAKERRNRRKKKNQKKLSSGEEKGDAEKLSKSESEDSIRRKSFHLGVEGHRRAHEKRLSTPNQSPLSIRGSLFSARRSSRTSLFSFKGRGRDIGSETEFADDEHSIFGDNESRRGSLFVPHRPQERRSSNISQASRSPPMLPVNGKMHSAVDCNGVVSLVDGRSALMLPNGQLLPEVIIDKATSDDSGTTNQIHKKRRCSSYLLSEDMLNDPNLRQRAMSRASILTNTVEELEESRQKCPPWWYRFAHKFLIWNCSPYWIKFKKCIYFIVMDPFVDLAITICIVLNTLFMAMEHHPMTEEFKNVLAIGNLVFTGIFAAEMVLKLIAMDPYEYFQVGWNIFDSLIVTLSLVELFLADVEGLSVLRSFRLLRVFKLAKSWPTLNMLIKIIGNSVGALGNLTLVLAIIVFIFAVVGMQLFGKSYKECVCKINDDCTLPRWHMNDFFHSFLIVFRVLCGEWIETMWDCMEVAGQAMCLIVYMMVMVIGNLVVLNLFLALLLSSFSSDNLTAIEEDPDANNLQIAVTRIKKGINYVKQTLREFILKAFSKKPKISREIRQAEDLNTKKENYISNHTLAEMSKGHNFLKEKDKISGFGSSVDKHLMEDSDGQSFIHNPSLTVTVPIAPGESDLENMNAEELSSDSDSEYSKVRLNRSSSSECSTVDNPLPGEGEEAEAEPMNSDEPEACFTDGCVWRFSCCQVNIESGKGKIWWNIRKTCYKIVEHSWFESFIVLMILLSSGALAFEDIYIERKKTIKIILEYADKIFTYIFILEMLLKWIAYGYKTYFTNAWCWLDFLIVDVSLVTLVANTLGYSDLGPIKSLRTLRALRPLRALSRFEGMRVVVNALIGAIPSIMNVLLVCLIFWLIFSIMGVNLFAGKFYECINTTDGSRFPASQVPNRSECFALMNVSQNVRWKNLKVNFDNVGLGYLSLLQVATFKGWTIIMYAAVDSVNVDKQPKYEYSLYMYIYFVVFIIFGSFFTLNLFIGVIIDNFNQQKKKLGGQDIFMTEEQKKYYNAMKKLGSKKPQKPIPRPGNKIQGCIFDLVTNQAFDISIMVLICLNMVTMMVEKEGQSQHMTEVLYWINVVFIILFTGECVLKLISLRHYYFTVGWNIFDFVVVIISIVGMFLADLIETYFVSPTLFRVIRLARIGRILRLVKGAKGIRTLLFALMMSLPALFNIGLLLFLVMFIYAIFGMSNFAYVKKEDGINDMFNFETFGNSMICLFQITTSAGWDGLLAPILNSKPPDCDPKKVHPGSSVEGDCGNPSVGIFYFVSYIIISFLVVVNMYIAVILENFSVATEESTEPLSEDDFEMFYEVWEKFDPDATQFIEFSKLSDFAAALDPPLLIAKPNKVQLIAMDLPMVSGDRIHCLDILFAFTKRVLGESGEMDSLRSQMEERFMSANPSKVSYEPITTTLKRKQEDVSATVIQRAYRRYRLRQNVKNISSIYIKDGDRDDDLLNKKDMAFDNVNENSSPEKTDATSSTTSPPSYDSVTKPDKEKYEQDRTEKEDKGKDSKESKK

Regarding `COc1cc(-c2cc(F)cc(F)c2)c(F)cc1-n1c2c(ccc1=O)CN(S(=O)(=O)Nc1ccon1)[C@@H](C)C2` (single isomer, unassigned) [Example 3-C-M], the IC50 on human Nav1.7 [1] was greater than 1000 nM; on human Nav1.7 [2] it was 8520 nM.

As to `COc1cc(OC(F)(F)F)cc(-c2cc(OC)c(-n3c4c(ccc3=O)CN(S(=O)(=O)Nc3cccnn3)CC4)cc2F)c1` [Example 76, P-1-(2-fluoro-3′,5-dimethoxy-5′-(trifluoromethoxy)-[1,1′-biphenyl]-4-yl)-2-oxo-N-(pyridazin-3-yl)-1,2,7,8-tetrahydro-1,6-naphthyridine-6(5H)-sulfonamide], the IC50 came to 38.8 nM at human Nav1.7 [1] and 4.2 nM at human Nav1.7 [2].

Turning to `COc1cc(-c2ccc(Cl)c(C)c2)c(F)cc1-n1c2c(ccc1=O)CN(S(=O)(=O)Nc1ncccn1)CC2` (racemic) [Example 30, (Rac)-1-(4′-chloro-2-fluoro-5-methoxy-3′-methyl-4-biphenylyl)-2-oxo-N-2-pyrimidinyl-1,5,7,8-tetrahydro-1,6-naphthyridine-6(2H)-sulfonamide], the values for the IC50 on human Nav1.7 [1] and at human Nav1.7 [2] were 993 nM and 44.3 nM, respectively.

With `COc1cc(-c2ccc(F)c(F)c2)c(F)cc1-n1c2c(ccc1=O)CN(S(=O)(=O)Nc1ncccn1)CC2` (single isomer, unassigned) [Example 28-P, P-2-oxo-N-2-pyrimidinyl-1-(2,3′,4′-trifluoro-5-methoxy-4-biphenylyl)-1,5,7,8-tetrahydro-1,6-naphthyridine-6(2H)-sulfonamide], the IC50 at human Nav1.7 [1] was found to be 499 nM; at human Nav1.7 [2], 80.5 nM.

Take `COc1cc(-c2cc(OC)c(-n3c4c(ccc3=O)CN(S(=O)(=O)Nc3ccon3)CC4)cc2Cl)ccc1Cl` [Example 52, P-1-(2,4′-dichloro-3′,5-dimethoxy-4-biphenylyl)-N-3-isoxazolyl-2-oxo-1,5,7,8-tetrahydro-1,6-naphthyridine-6(2H)-sulfonamide]: the IC50 on human Nav1.7 [1] was found to be 22.9 nM; at human Nav1.7 [2], 2.8 nM.

As for `COc1cc(-c2cc(F)cc(F)c2)c(F)cc1-n1c2c(ccc1=O)CN(S(=O)(=O)Nc1ccon1)[C@H](C)C2` [Example 3-D-M, M-(7R)-N-3-isoxazolyl-7-methyl-2-oxo-1-(2,3′,5′-trifluoro-5-methoxy-4-biphenylyl)-1,5,7,8-tetrahydro-1,6-naphthyridine-6(2H)-sulfonamide], the IC50 at human Nav1.7 [1] is greater than 1000 nM; at human Nav1.7 [2], greater than 7500 nM.

Consider `COc1cc(-c2cc(F)cc(F)c2)c(F)cc1-n1c2c(ccc1=O)[C@@H](C)N(S(=O)(=O)Nc1ccon1)CC2` (single isomer, unassigned) [Example 3-A-M], for which the figures for the half-inhibitory concentration (IC50) on human Nav1.7 [1] and on human Nav1.7 [2] were greater than 1000 nM and 2800 nM, respectively.

For `COc1cc(-c2cc(F)cc(F)c2)c(F)cc1-n1c2c(ccc1=O)CN(S(=O)(=O)Nc1ncon1)CC2` (single isomer, unassigned) [Example 17-M, M-N-1,2,4-oxadiazol-3-yl-2-oxo-1-(2,3′,5′-trifluoro-5-methoxy-4-biphenylyl)-1,5,7,8-tetrahydro-1,6-naphthyridine-6(2H)-sulfonamide], the IC50 on human Nav1.7 [1] came out at 292 nM; at human Nav1.7 [2], 34.3 nM.

With `COc1cc(-c2ccc(F)c(C)c2)c(F)cc1-n1c2c(ccc1=O)CN(S(=O)(=O)Nc1ncccn1)CC2` (single isomer, unassigned) [Example 29-M, M-1-(2,4′-difluoro-5-methoxy-3′-methyl-4-biphenylyl)-2-oxo-N-2-pyrimidinyl-1,5,7,8-tetrahydro-1,6-naphthyridine-6(2H)-sulfonamide], the IC50 on human Nav1.7 [1] is greater than 30000 nM; at human Nav1.7 [2], greater than 2500 nM.

Consider `COc1nc(-c2cc(F)cc(Cl)c2)c(F)cc1-n1c2c(ccc1=O)CN(S(=O)(=O)Nc1ccon1)CC2` (racemic) [Example 36, (Rac)-1-(6-(3-chloro-5-fluorophenyl)-5-fluoro-2-methoxy-3-pyridinyl)-N-3-isoxazolyl-2-oxo-1,5,7,8-tetrahydro-1,6-naphthyridine-6(2H)-sulfonamide], for which the results for the IC50 at human Nav1.7 [1] and at human Nav1.7 [2] were 423 nM and 173 nM, respectively.
